PMC11085442 (Molecules, 2024)
Values after ≈ are worked out from the molar mass of the structure shown.

How the values were obtained:
[1] = test system: LPS-stimulated RAW264.7 cell lines; test: LPS-induced NO production (Griess) in RAW264.7; assay type: cell-based, murine; conditions: for inhibitory activity against NO production compared with curcumin: 10 μM; for The production of NO: LPS-stimulated RAW264.7, LPS group 49.86 ± 0.62, control 1.20 ± 0.38
Procedure: RAW 264.7 cells were plated in 96-well plates at a density of 1 × 10^4 cells/well and incubated overnight at 37 °C under 5% CO2. […] Dexamethasone (Solarbio, D8040, Beijing, China) was used as the positive control. Then, 24 h later, NO production was determined by measuring the nitrite content using Griess reagents. Fifty microliters of culture supernatants were transferred to 96-well plates and mixed with 50 μL Griess reagent A. After incubation at room temperature for 5 min, the samples were mixed with an equal volume Griess reagent B for another 5 min. The absorbance of each mixture at 540 nm was measured using a microplate reader.

[2] = test system: H2O2-stimulated PC 12 cell lines; test: Protection against H2O2-induced oxidative damage (CCK-8); assay type: cell-based, rat; conditions: for viability at 5 µM / viability at 10 µM / viability at 20 µM: Rattus norvegicus; for viability at 5 µM: PC-12, Dose 5 μM; for viability at 5 µM / viability at 10 µM / viability at 20 µM / Cell viability: H2O2-induced oxidative damage, PC 12, H2O2 group 49.69 ± 1.37, control 100; for viability at 10 µM: PC-12, Dose 10 μM; for viability at 20 µM: PC-12, Dose 20 μM; for anti-oxidant capacity compared with curcumin: 10 μM; for anti-oxidant capacity compared with curcumin / cell survival rate (anti-oxidant): H2O2-stimulated PC 12; for Cell viability: in % (unit assumed); for cell survival rate (anti-oxidant): at 10 μM
Procedure: PC 12 cells were seeded in 96-well plates at a density of 8000 cells/well and incubated overnight. […] After incubating under the same conditions for 24 h, 10 μL CCK-8 solution was added to each well. After 2 h incubation, the absorbance of each well was measured at 450 nm using a microplated reader (Multiskan MK-3, Thermo, Waltham, MA, USA).

PC 12 cell lines = test: Radiation protection in vitro (CCK-8); assay type: cell-based, rat; conditions: for radiation protection capability compared with curcumin / radiation protection capacity: 10 μM; for radiation protection capacity: versus radiation group; for Cell viability / viability at 5 µM / viability at 10 µM / viability at 20 µM: radiation 8.0 Gy, PC 12, radiation group 50.22 ± 1.08; for Cell viability: in % (unit assumed); for viability at 5 µM / viability at 10 µM / viability at 20 µM: Rattus norvegicus; for viability at 5 µM: PC-12, Dose 5 μM; for viability at 10 µM: PC-12, Dose 10 μM; for viability at 20 µM: PC-12, Dose 20 μM
Procedure: The rat adrenal pheochromocytoma cells (PC 12) were used for in vitro studies. A Cell Counting Kit-8 (CCK-8, Applygen Technologies Co., Ltd., Beijing, China) assay was used to determine cell viability. […] Cells were irradiated with dose of 8.0 Gy at a dose rate of 0.8 Gy/min. Then, 10 μL CCK-8 solution was added to all the wells. After 4 h incubation, the absorbance at 450 nm of each well was measured in a multiscan photometer.

[3] = Aqueous solubility determination by UV spectrophotometer; assay type: physicochemical; conditions: water, thermodynamic from solid, saturated solution concentration
Procedure: A UV spectrophotometer was used to test the aqueous solubility of target compounds. Each compound to be tested was prepared into solutions with concentrations of 0.2 M, 0.1 M, 0.05 M, 0.025 M, 0.0125 M, 0.00625 M, and 0.003125 M. The optical density (OD) values of the prepared solutions were measured using an ultraviolet spectrophotometer, and concentration–OD-value standard curves were drawn for each compound to be tested. The saturated solutions of the target compounds were diluted by 5000 times and detected using an ultraviolet spectrophotometer to measure the OD values, respectively. The measured OD values were substituted into the corresponding concentration-OD value standard curve to calculate the diluted concentrations, which were multiplied by 5000 to obtain the saturated solution concentrations of the target compounds.

Row | Structure (SMILES) | solubility [3] [mg/mL] | inhibitory activity against NO production compared with curcumin [1] | The production of NO ([1]; Dose 5 μM) | The production of NO ([1]; Dose 10 μM) | The production of NO ([1]; Dose 15 μM) | viability at 5 µM [2] [%] | viability at 10 µM [2] [%] | viability at 20 µM [2] [%] | radiation protection capacity (PC 12 cell lines) | Cell viability (PC 12 cell lines; Dose 5 μM) | Cell viability (PC 12 cell lines; Dose 10 μM) | Cell viability (PC 12 cell lines; Dose 20 μM) | Cell viability ([2]; Dose 5 μM) | Cell viability ([2]; Dose 10 μM) | Cell viability ([2]; Dose 20 μM) | viability at 5 µM (PC 12 cell lines) [%] | viability at 10 µM (PC 12 cell lines) [%] | viability at 20 µM (PC 12 cell lines) [%] | other results
1 | COc1cc(/C=C/C(=O)CC(=O)/C=C/c2c(C)cc(O)cc2C)cc(CN(C)C)c1O [Compound 13a] | 285 (≈ 674 mM) | better inhibitory activity | 17.80 ± 2.19 | 9.09 ± 1.21 | 5.58 ± 0.11 | 71.5 ± 2.53 | 77.9 ± 3.02 | 90.2 ± 3.77 | a certain degree of radiation protection capacity | 66.55 ± 2.11 | 75.50 ± 1.73 | 88.50 ± 1.18 | – | – | – | – | – | – | radiation protection capability compared with curcumin (PC 12 cell lines; irradiated PC 12): better radiation protection capability
2 | COc1cc(/C=C/C(=O)CC(=O)/C=C/c2cc(C)c(O)cc2C)cc(CN(C)C)c1O [Compound 12a] | 206 (≈ 487 mM) | better inhibitory activity | 18.38 ± 1.63 | 12.76 ± 0.83 | 9.05 ± 0.72 | 76.3 ± 3.14 | 81.9 ± 2.3 | 88.1 ± 2.09 | a certain degree of radiation protection capacity | 59.04 ± 1.00 | 63.19 ± 1.90 | 77.34 ± 2.18 | – | – | – | – | – | – | anti-oxidant capacity compared with curcumin [2]: better anti-oxidant capacity
3 | COc1cc(/C=C/C(=O)CC(=O)/C=C/c2ccc(O)cc2F)cc(CN(C)C)c1O [Compound 4a] | 314 (≈ 760 mM) | – | 31.54 ± 1.30 | 20.51 ± 1.88 | 9.45 ± 1.96 | – | – | – | – | – | – | 97.55 ± 3.44 | 67.52 ± 3.31 | 75.00 ± 2.39 | 86.52 ± 5.31 | 56.4 ± 3.51 | 61.5 ± 3.74 | – | –
4 | COc1cc(/C=C/C(=O)CC(=O)/C=C/c2ccc(O)cc2C)cc(CN(C)C)c1O [Compound 3a] | 255 (≈ 623 mM) | better inhibitory activity | 32.92 ± 2.00 | 16.27 ± 1.74 | 5.29 ± 0.97 | – | – | – | – | – | – | – | 61.60 ± 3.89 | 72.94 ± 2.65 | 86.90 ± 1.63 | 57.1 ± 3.05 | 64.2 ± 0.94 | 69.1 ± 2.51 | –
5 | COc1cc(/C=C/C(=O)CC(=O)/C=C/c2ccc(O)c(Cl)c2)cc(CN(C)C)c1O [Compound 7a] | 258 (≈ 600 mM) | better inhibitory activity | 35.35 ± 1.59 | 16.83 ± 0.42 | 9.77 ± 0.63 | – | – | – | – | – | – | – | 54.89 ± 1.04 | 62.07 ± 4.16 | 79.65 ± 3.04 | 62.1 ± 1.39 | 65.5 ± 2.03 | 75.7 ± 2.05 | cell survival rate (anti-oxidant) [2]: 62%
6 | CCOc1cc(/C=C/C(=O)CC(=O)/C=C/c2cc(CN(C)C)c(O)c(OC)c2)ccc1O [Compound 1a] | 201 (≈ 457 mM) | – | 44.93 ± 0.35 | 32.32 ± 1.94 | 5.77 ± 0.09 | – | – | – | a certain degree of radiation protection capacity | – | – | – | 66.25 ± 1.36 | 80.18 ± 1.38 | 89.36 ± 1.63 | 60 ± 5.39 | 62.9 ± 6.12 | – | anti-oxidant capacity compared with curcumin [2]: better anti-oxidant capacity

Now from value to molecule, other results behind:

Row | solubility [3] [mg/mL] | Structure (SMILES) | inhibitory activity against NO production compared with curcumin [1] | The production of NO ([1]; Dose 5 μM) | The production of NO ([1]; Dose 10 μM) | The production of NO ([1]; Dose 15 μM) | viability at 5 µM [2] [%] | viability at 10 µM [2] [%] | viability at 20 µM [2] [%] | radiation protection capacity (PC 12 cell lines) | Cell viability (PC 12 cell lines; Dose 5 μM) | Cell viability (PC 12 cell lines; Dose 10 μM) | Cell viability (PC 12 cell lines; Dose 20 μM) | Cell viability ([2]; Dose 5 μM) | Cell viability ([2]; Dose 10 μM) | Cell viability ([2]; Dose 20 μM) | viability at 5 µM (PC 12 cell lines) [%] | viability at 10 µM (PC 12 cell lines) [%] | viability at 20 µM (PC 12 cell lines) [%] | other results
7 | 132 (≈ 311 mM) | COc1ccc(/C=C/C(=O)CC(=O)/C=C/c2cc(CN(C)C)c(O)c(OC)c2)cc1O [Compound 11a] | better inhibitory activity | 35.82 ± 1.34 | 15.68 ± 3.02 | 4.63 ± 0.40 | 61.5 ± 1.46 | 73.7 ± 3.89 | 97.3 ± 1.95 | a certain degree of radiation protection capacity | 60.93 ± 1.64 | 64.92 ± 0.58 | 106.32 ± 7.58 | – | – | – | – | – | – | cell survival rate (radiation protection) (PC 12 cell lines; at 20 μM, irradiated PC 12): 106%
8 | 126 (≈ 277 mM) | COc1cc(/C=C/C(=O)CC(=O)/C=C/c2c(OC)cc(O)cc2OC)cc(CN(C)C)c1O [Compound 14a] | better inhibitory activity | 29.10 ± 0.37 | 13.47 ± 0.31 | 7.49 ± 0.40 | 68 ± 3.05 | 77.1 ± 0.64 | 81.9 ± 1.35 | a certain degree of radiation protection capacity | 64.83 ± 0.66 | 68.68 ± 1.31 | 77.66 ± 1.75 | – | – | – | – | – | – | radiation protection capability compared with curcumin (PC 12 cell lines; irradiated PC 12): better radiation protection capability
9 | 167 (≈ 393 mM) | COc1cc(O)ccc1/C=C/C(=O)CC(=O)/C=C/c1cc(CN(C)C)c(O)c(OC)c1 [Compound 9a] | – | 36.91 ± 0.59 | 21.33 ± 0.19 | 11.29 ± 0.25 | – | – | – | – | – | – | – | 63.56 ± 2.88 | 70.76 ± 3.98 | 81.08 ± 2.61 | 56.9 ± 1.03 | 60.9 ± 1.55 | 70.2 ± 2.99 | –
10 | 118 (≈ 279 mM) | COc1cc(/C=C/C(=O)CC(=O)/C=C/c2cc(C)c(O)c(C)c2)cc(CN(C)C)c1O [Compound 8a] | better inhibitory activity | 35.08 ± 2.53 | 16.57 ± 1.70 | 4.61 ± 0.29 | – | – | – | a certain degree of radiation protection capacity | – | – | – | 74.54 ± 1.42 | 81.49 ± 3.47 | 87.62 ± 2.98 | 60.3 ± 1.38 | 62.2 ± 0.75 | 81.9 ± 2.94 | anti-oxidant capacity compared with curcumin [2]: better anti-oxidant capacity
11 | 148 (≈ 325 mM) | COc1cc(/C=C/C(=O)CC(=O)/C=C/c2cc(OC)c(O)c(OC)c2)cc(CN(C)C)c1O [Compound 2a] | – | 41.89 ± 1.95 | 38.68 ± 0.96 | 36.24 ± 0.50 | – | – | – | – | – | – | 92.24 ± 6.04 | 56.60 ± 0.54 | 61.51 ± 1.77 | 65.65 ± 1.31 | 57.7 ± 4.12 | 61.6 ± 4.11 | – | cell survival rate (anti-oxidant) [2]: 61%
